Source: publication PMC5983544, “Muscarinic M5 receptors modulate ethanol seeking in rats” (Neuropsychopharmacology, 2018)

Legend:
[1] = tested on: ethanol-preferring (iP) rats; assay: Ethanol self-administration after bilateral microinjection into dorsomedial (DM) striatum; type: in vivo, rat; conditions: intra-DM striatum
Text: (§1) Male iP rats (n = 14) were trained to self-administer 10% (v/v) ethanol via lever presses under FR3 operant conditions for approximately 12 weeks, in the presence of a 1-s light conditioned stimulus (CS+) occurring when the ethanol solution was delivered and an olfactory cue (S+ cue; one drop of vanilla essence, placed directly below the ethanol-paired (active) lever), as previously described, followed by surgery and testing. […] Rats were then given 7 days of ethanol self-administration before receiving the alternate treatment in a counterbalanced manner. For full details refer to Supplementary material.
(§2) Microinjections were performed as previously described; for full details see Supplementary material.
There was a main effect of lever (F(1, 15) = 59.4, P < 0.0001) but no effect of treatment (F(1, 15) = 0.22, P = 0.65) (Fig. 5b).

[2] = tested on: ethanol-preferring (iP) rats; assay: Ethanol self-administration after bilateral microinjection into dorsolateral (DL) striatum; type: in vivo, rat; conditions: intra-DL striatum
Text: as §1, §2

Row | Structure (SMILES) | ethanol responding vs vehicle ([1]; 5.53 nmol/hemisphere) | ethanol responding vs vehicle ([2]; 5.53 nmol/side, P = 0.0003) | responding for water vs vehicle ([2]; 5.53 nmol/side, P = 0.96) | responding for ethanol vs vehicle ([1]; 165 pmol/hemisphere, P = 0.99) | responding for ethanol vs vehicle ([2]; 165 pmol/hemisphere, P = 0.82)
1 | c1cnc2cc3c(cc2n1)[C@@H]1CNC[C@H]3C1 [varenicline] | did not affect ethanol responding | significantly reduced ethanol responding | no difference |  | 
2 | CCN(Cc1ccccc1C(F)(F)F)C(=O)C1CCN(S(=O)(=O)c2ccc3[nH]ncc3c2)CC1 [ML380, 1-((1H-indazol-5-yl)sulfoneyl)-N-ethyl-N-(2-(trifluoromethyl)benzyl)piperidine-4-carboxamide] |  |  |  | no effect | no effect
